The values below come from patent US10787650B2, “Artificial bioluminescent enzymes” (NATIONAL INSTITUTE OF ADVANCED INDUSTRIAL SCIENCE AND …, priority 2015, dated 2020).

B1: ALuc49: artificial luciferase, SEQ ID NO: 9 (protein)
chain: MMGIKVLFALVCLALVQAKPTEDEDEDDIVDVVGNFWAIGVDNDRDFTISADRGKLPGKKLPKEVLIEIEANAKKAGCTRGCLICLSKIKCTAKMKKWLPGRCHSYEGDKDTGQGGIGEPIVDAPEIPGFKDLTPMEQFIAQVDLCADCTTGCLKGLANVKCSALLKKWLPDRCASFADKIQKEVDYIKGLAGS
B2: ALuc47: artificial luciferase, SEQ ID NO: 7 (protein)
chain: B1 chain with D186G, Y187T, A192L
B3: ALuc50: artificial luciferase, SEQ ID NO: 10 (protein)
chain: B1 chain with Y187F
B4: ALuc41: artificial luciferase, SEQ ID NO: 2 (protein)
chain: B1 chain with Y187T
B5: ALuc46: artificial luciferase, SEQ ID NO: 6 (protein)
chain: B1 chain with K183S, D186A, Y187T

Where a chain is given by its changes, count along the chain named.

System in the first data set: not listed separately
Description: Luminescence activity of novel artificial bioluminescent enzymes (COS-7 cell lysate). The format is biochemical, African green monkey. The conditions noted are these: COS-7 lysate, native coelenterazine. How it is done:
African green monkey kidney-derived COS-7 cells were cultured using a 96-well microplate. The COS-7 cells were grown until occupying 90% of the bottom-surface area of the culture plate, and, as shown in FIG. 19 and FIG. 20, were each transiently transfected with a pcDNA 3.1(+) vector (Invitrogen) encoding each luminescent enzyme with a lipofection reagent (TransIT-LT1, Mirus). After that, the cells were further cultured for about 1 day. After the culture, cell lysates were prepared using a cell lysis agent (Lysis buffer, Promega), and 5 μL each of the cell lysates was taken from each well and transferred to a 96-well microplate for measurement. An assay buffer (50 μL) containing native coelenterazine was simultaneously added to each well using a multichannel pipette. Immediately after the addition of the assay buffer, the microplate was moved into the black box of an image analyzer (LAS-4000, FujiFilm), and luminescence images were measured with a CCD camera (FIG. 19 and FIG. 20).
With B1, the “luminescence intensities as compared to conventional ALucs (e.g., ALuc16 and ALuc30)” value is listed as “even stronger luminescence intensities”.
Same read-out and setting: under B2 stands “relatively low luminescence intensities”; under B3, “even stronger luminescence intensities”; under B4, “relatively low luminescence intensities”.
Still for that read-out and setting: under B5 stands “relatively low luminescence intensities”.

The next data set relates to ALuc16. Briefly: Metal cation-driven optical intensities of ALuc16 (purified enzyme). The format is biochemical. The conditions noted are these: metal cation-free Tris-HCl buffer (pH 8.2, 0.05 M), nCTZ. The protocol: The metal cation-driven optical properties were estimated with ALuc16 (FIG. 6). A metal cation-free sample of ALuc16 was prepared beforehand as follows: we first generated a DNA construct of ALuc16 carrying a Strep-II tag at the C-terminus via PCR. The construct was then cloned into a pOPTHM vector (providing a cleavable N-terminal His6-MBP tag), and expressed in the bacterial strain Shuffle T7 Express (New England Biolabs) with 0.3 mM IPTG induction. […] The lysate was centrifuged at 18,000 rpm for 40 minutes, and then the supernatant was passed over a 5 mL HisTrap HP column (GE Healthcare). […] The eluted sample was dialyzed to a metal-cation-free Tris-HCl buffer (0.05 M, pH 8.2) at 4° C. for 24 hours, and finally adjusted to a concentration of 1 mg/ml by dilution. […] Meanwhile, the corresponding substrate solution carrying nCTZ (Promega) was diluted 100-fold with the cation-free Tris-HCl buffer (Solution B). 50 μL of Solution B was simultaneously injected into Solution A in the 96-well plate with a multichannel micropipette (Gilson). The microplate was immediately moved to an image analyzer (LAS-4000, FujiFilm) equipped with a cooled charge-coupled device (CCD) camera, and the optical intensities were simultaneously estimated in a precision mode. The measurements were conducted in triplicate (n=3). The optical images were analyzed with Multi Gauge V3.2 (FujiFilm). […] The experiment was conducted by the same method as that of FIG. 6. In the inset, the optical image taken with LAS-4000 (FujiFilm) is shown.
On to `[Cl-].[Cl-].[Co+2]` [Co(II)], for which the “effect on optical intensities (activities) of ALuc16” value is “suppress”.
Still for that read-out and setting: under `[K+]` [K^+] stands “little effect”; under `[Li+]` [Li^+], “little effect”; under `N` [NH4^+], “little effect”.
The same measure, in the same setting: under `[Na+]` [Na^+] stands “little effect”.
As to Cr(VI), the “elevation of ALuc16 activities / optical intensities” value is “about 2 times”.

The target in another data set is TPv2.4 (Homo sapiens, UniProt P42345).
TPv2.4, sequence (P42345 with tags, fused parts or gaps): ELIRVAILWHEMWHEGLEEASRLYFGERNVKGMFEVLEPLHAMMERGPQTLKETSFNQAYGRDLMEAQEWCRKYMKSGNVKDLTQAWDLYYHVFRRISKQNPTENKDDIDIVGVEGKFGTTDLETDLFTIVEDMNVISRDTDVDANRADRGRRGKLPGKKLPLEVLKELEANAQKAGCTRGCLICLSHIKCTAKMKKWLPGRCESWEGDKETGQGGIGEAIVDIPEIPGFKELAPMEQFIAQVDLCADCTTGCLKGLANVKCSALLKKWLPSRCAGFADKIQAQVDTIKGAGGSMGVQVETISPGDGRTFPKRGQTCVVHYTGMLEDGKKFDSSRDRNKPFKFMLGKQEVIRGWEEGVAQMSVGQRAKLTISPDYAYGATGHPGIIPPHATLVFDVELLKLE
Test: not given
Settings: not given
For `O=c1c(Cc2ccc(I)cc2)nc2c(Cc3ccccc3)[nH]c(-c3ccc(O)cc3)cn1-2` [CTZ i, coelenterazine i], the “luminescence half-life from substrate injection” value is “about 15 minutes”.

The data set is the same for the next values; noted with them: 20 minutes after substrate injection.
With coelenterazine n [CTZ n], the “initial luminescence intensity retained” value is given as “about 60%”.

Still in this data set, the particulars now being: compared with native coelenterazine.
For `O=c1c(Cc2ccc(I)cc2)nc2c(Cc3ccccc3)[nH]c(-c3ccc(O)cc3)cn1-2` [CTZ i, coelenterazine i], the luminescence intensity sustainability result is “longer than that of native coelenterazine”.
Still for that read-out and setting: under coelenterazine n [CTZ n] stands “longer than that of native coelenterazine”.

The same data set, now with this note: lysate of rapamycin-stimulated COS-7 cells, substrate 0.1 μg/μL.
On to `Oc1ccc(Cc2nc3c(CC4CCCC4)nc(-c4ccc(O)cc4)cn3c2O)cc1` [CTZ cp, coelenterazine cp], for which the “bioluminescence intensity with TPv2.4” value is “weak luminescence intensities”.
Same read-out and setting: under `Oc1ccc(-c2cn3c(O)c(Cc4ccc(F)cc4)nc3c(CC3CCCC3)n2)cc1` [CTZ fcp, coelenterazine fcp] stands “weak luminescence intensities”.
On the same count and under the same terms, under `Oc1ccc(-c2cn3c(O)c(Cc4ccccc4)nc3c(CC3CCCC3)n2)cc1` [CTZ hcp, coelenterazine hcp] stands “weak luminescence intensities”.
Same read-out and setting: under coelenterazine f [CTZ f] stands “strongest bioluminescence intensities”.
For the molecule coelenterazine h [CTZ h], the “bioluminescence intensity with TPv2.4” value is listed as “strongest bioluminescence intensities”.
On the same count and under the same terms, under coelenterazine ip [CTZ ip] stands “weak luminescence intensities”; under native coelenterazine [nCTZ], “strongest bioluminescence intensities”.
